The values below come from patent US10781200B2, “Therapeutic inhibitory compounds” (Attune Pharmaceuticals, Inc., priority 2016, dated 2020).

This data set is described as follows: Pharmacokinetic study, oral exposure in rats. The data set is classed as in vivo. As to conditions: male Sprague-Dawley rats, single oral dose 10 mg/kg, plasma. On the procedure:
Pharmacokinetic studies of select compounds were performed to assess the pharmacokinetic properties. Male Sprague-Dawley rats were administered a single oral dose of the test compound at 10 mg/kg (dose concentration: 2 mg/mL, dose volume: 5 ml/kg) via oral gavage. Blood samples were collected via jugular vein at pre-dose, post-dose 5 min, 15 min, 30 min, 1 h, 2 h, 4 h, 6 h, 8 h, 10 h and 24 h, and centrifuged (8000 rpm for 6 minutes at 2-8° C.). The resulting plasma fractions were analyzed by LC/MS/MS to determine the concentration of the test compound.
For the molecule `Cc1cc(N)nc(C)c1CNC(=O)c1cn(Cc2ccc3ncc(Cl)cc3c2)c2ccncc12` [Example 35, N-((6-amino-2,4-dimethylpyridin-3-yl)methyl)-1-((3-chloroquinolin-6-yl)methyl)-1H-pyrrolo[3,2-c]pyridine-3-carboxamide], the AUC result is on record as “BLQ”.
With `Cc1cc(N)nc(C)c1CNC(=O)c1c[nH]c(Cc2ccc3ncc(Cl)cc3c2)n1` [Example 5, N-((6-amino-2,4-dimethylpyridin-3-yl)methyl)-2-((3-chloroquinolin-6-yl)methyl)-1H-imidazole-5-carboxamide], the AUC entry is recorded as “BLQ”.
As to `Cc1cc(N)nc(C)c1CNC(=O)c1cn(Cc2ccc3ncc(Cl)cc3c2)c2cnc(C#N)cc12` [Example 134, N-((6-amino-2,4-dimethylpyridin-3-yl)methyl)-1-((3-chloroquinolin-6-yl)methyl)-5-cyano-1H-pyrrolo[2,3-c]pyridine-3-carboxamide], the AUC entry is “BLQ”.
